In the test the target is T1, MsGOBP2 (Mythimna separata, UniProt A0A5H2NB15).
T1 construct: recombinant, pColdII vector, E. coli TransB, Ni-NTA purified, expression tag removed with enterokinase
T1 sequence (A0A5H2NB15 22-162): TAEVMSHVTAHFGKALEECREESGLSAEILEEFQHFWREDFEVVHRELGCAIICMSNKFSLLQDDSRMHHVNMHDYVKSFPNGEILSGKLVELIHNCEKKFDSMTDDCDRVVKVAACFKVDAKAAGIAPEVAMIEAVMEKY
The test is described as follows: direct fluorescence titration with the probe. Type of test: binding. Particulars: 2 μM protein; protein dialyzed in 10 mM PBS pH 7.4; excitation 337 nm.

For `c1ccc(Nc2cccc3ccccc23)cc1` [1-NPN], the K1-NPN entry was “yielding the dissociation constants between the two proteins and 1-NPN (K1-NPN)”.
